# Assay: Stability in humidity chamber 40° C./75% R.H. (XRPD, HPLC)
# Type: physicochemical
# Conditions: 2 weeks
# Description: After 2 days, the solids were isolated by filtration under vacuum at RT to be characterised by XRPD analysis. Each new crystalline solid phase detected was characterised by ^1H NMR and TGA-DSC analyses in order to determine if salt formation had occurred and whether the material was a solvate. At this stage, each salt identified was then analysed by HPLC to determine the chemical purity prior to being stored in the humidity chamber (40° C./75% R.H.) to assess its stability.
Compound,XPRD stability after 40° C./75% RH 2 weeks (besylate),"XPRD stability after 40° C./75% RH 2 weeks (listed as Besylate pattern 1, besylate)","XPRD stability after 40° C./75% RH 2 weeks (listed as Fumarate pattern 1, fumarate)"
"CN1CC=CCCOc2cccc(c2)C2=CC=NC(=Nc3cccc(c3)C1)N2.O=S(=O)(O)c1ccccc1 [Besylate Pattern 1, 14-methyl-20-oxa-5,7,14,27-tetraazatetracyclo-[19.3.1.12,6.18,12]heptacosa-1(25),2,4,6,8,10,12(26),16,21,23-decaene besylate]",stable,No change,
"CN1CC=CCCOc2cccc(c2)C2=CC=NC(=Nc3cccc(c3)C1)N2.O=C(O)/C=C/C(=O)O [Fumarate Pattern 1, 14-methyl-20-oxa-5,7,14,27-tetraazatetracyclo-[19.3.1.12,6.18,12]heptacosa-1(25),2,4,6,8,10,12(26),16,21,23-decaene fumarate]",,,No change
